Values of other authors, collected in patent US20250228825A1, “COMPOSITIONS OF RAPAMYCIN AND THEIR USE IN THE TREATMENT OF M[…] MALFORMATION” (priority 2021, published 2025).

System: LM lesions
Settings: patients with LM

## CO[C@H]1C[C@@H]2CC[C@@H](C)[C@@](O)(O2)C(=O)C(=O)N2CCCC[C@H]2C(=O)O[C@H]([C@H](C)C[C@@H]2CC[C@@H](O)[C@H](OC)C2)CC(=O)[C@H](C)/C=C(\C)[C@@H](O)[C@@H](OC)C(=O)[C@H](C)C[C@H](C)/C=C/C=C/C=C/1C [sirolimus, rapamycin]
Reported in another review
  effectiveness: 84.5%
Reported in one review
  pooled clinical effectiveness (partial or complete response): 94.9%
